Tested on: C. elegans
Assay: Reverse-Northern dot-blot analysis of steady-state mRNA levels after cadmium exposure
Format: in vivo, Caenorhabditis elegans
Conditions: for Fold-change in mRNA levels following cadmium exposure, DDRT1: clone DDRT1; for Fold-change in mRNA levels following cadmium exposure, DDRT2: clone DDRT2; for Fold-change in mRNA levels following cadmium exposure, DDRT3: clone DDRT3; for Fold-change in mRNA levels following cadmium exposure, DDRT4: clone DDRT4; for Fold-change in mRNA levels following cadmium exposure, DDRT5: clone DDRT5; for Fold-change in mRNA levels following cadmium exposure, DDRT6: clone DDRT6; for Fold-change in mRNA levels following cadmium exposure, DDRT7: clone DDRT7; for Fold-change in mRNA levels following cadmium exposure, DDRT9: clone DDRT9; for Fold-change in mRNA levels following cadmium exposure, DDRT10: clone DDRT10; for Fold-change in mRNA levels following cadmium exposure, DDRT12: clone DDRT12; for Fold-change in mRNA levels following cadmium exposure, DDRT15: clone DDRT15; for Fold-change in mRNA levels following cadmium exposure, DDRT16: clone DDRT16; for Fold-change in mRNA levels following cadmium exposure, DDRT17: clone DDRT17; for Fold-change in mRNA levels following cadmium exposure, DDRT18: clone DDRT18; for Fold-change in mRNA levels following cadmium exposure, DDRT19: clone DDRT19; for Fold-change in mRNA levels following cadmium exposure, DDRT20: clone DDRT20; for Fold-change in mRNA levels following cadmium exposure, DDRT21D: clone DDRT21D; for Fold-change in mRNA levels following cadmium exposure, DDRT21U: clone DDRT21U; for Fold-change in mRNA levels following cadmium exposure, DDRT22: clone DDRT22; for Fold-change in mRNA levels following cadmium exposure, DDRT23: clone DDRT23; for Fold-change in mRNA levels following cadmium exposure, DDRT25: clone DDRT25; for Fold-change in mRNA levels following cadmium exposure, DDRT26: clone DDRT26; for Fold-change in mRNA levels following cadmium exposure, DDRT28: clone DDRT28; for Fold-change in mRNA levels following cadmium exposure, DDRT29: clone DDRT29; for Fold-change in mRNA levels following cadmium exposure, DDRT30: clone DDRT30; for Fold-change in mRNA levels following cadmium exposure, DDRT32: clone DDRT32; for Fold-change in mRNA levels following cadmium exposure, DDRT33D: clone DDRT33D; for Fold-change in mRNA levels following cadmium exposure, DDRT33U: clone DDRT33U; for Fold-change in mRNA levels following cadmium exposure, DDRT34: clone DDRT34; for Fold-change in mRNA levels following cadmium exposure, DDRT35: clone DDRT35; for Fold-change in mRNA levels following cadmium exposure, DDRT40: clone DDRT40; for Fold-change in mRNA levels following cadmium exposure, DDRT41: clone DDRT41; for Fold-change in mRNA levels following cadmium exposure, DDRT48: clone DDRT48; for Fold-change in mRNA levels following cadmium exposure, DDRT50: clone DDRT50; for Fold-change in mRNA levels following cadmium exposure, VL9: clone VL9; for Fold-change in mRNA levels following cadmium exposure, VL11: clone VL11; for Fold-change in mRNA levels following cadmium exposure, VL19: clone VL19; for Fold-change in mRNA levels following cadmium exposure, VL20: clone VL20; for Fold-change in mRNA levels following cadmium exposure, VL21: clone VL21
Method: Growth and isolation of C. elegans—The N2 strain of C. elegans was grown in liquid S medium (0.1M NaCl, 50 mM potassium phosphate, pH 6.0, 5 μg/ml cholesterol, 10 mM potassium citrate, 3 mM CaCl2, 3 mM MgCl2, 50 μM EDTA, 25 μM FeSO4, 10 μM MnCl2, 10 μM ZnSO4 and 1 μM CuSO4) using E. coli OP50 as a food source (Brenner, S. (1974) Genetics 77, 71-94). In experiments where nematodes were exposed to cadmium, the medium was supplemented with 100 μM CdCl2 (Freedman, J. H. et al. (1993) J. Biol. Chem. 268, 2554-2564). C. elegans were grown in the presence of metal for 8 h or 24 h at ˜20° C. Nematodes were then collected following centrifugation at 800×g for 5 min. Pellets were suspended in 5 mM NaCl containing 35% sucrose (final concentration) and viable nematodes were collected from the top of the solution following centrifugation at 1000×g for 5 min at 4° C. Nematodes were then washed three times by suspension in M9 buffer (22 mM KH2PO4, 42 mM Na2HPO4, 85 mM NaCl, 1 mM MgSO4) followed by sedimentation at 800×g. Washed nematode pellets were finally suspended in a small volume of M9 buffer, rapidly frozen in liquid nitrogen and stored at −80° C.
RNA isolation—Total RNA was isolated from mix-stage populations of C. elegans exposed to 100 μM CdCl2 for 8 h and 24 h and control, non-exposed nematodes. Frozen worms were first ground into a fine powder using a liquid nitrogen-cooled mortar and pestle. Powdered C. elegans (200 mg) were then homogenized in 2 ml of TRIzol (GIBCO/BRL). RNA was then collected from the aqueous phase following the addition of chloroform, precipitated by adding isopropyl alcohol and then air-dried. The dried RNA pellet was then dissolved in diethyl pyrocarbonate (DEPC)-treated water. For some experiments, poly(A^+) RNA was subsequently isolated using the Poly(A) Tract System following manufacturer's instructions (Promega).
Reverse-Northern dot-blot analysis—Changes in the steady-state levels of differentially expressed mRNAs in C. elegans following cadmium-exposure were also determined by reverse-Northern dot-blot analysis by the modified procedure of Zhang et al. (Cummins, C. et al. (1988) Mol. Cell. Biol 8, 5334-5349). Briefly, differentially expressed cDNAs that were previously cloned into pGEM-T were amplified using primers that anneal to the T7 and SP6 RNA polymerase binding sites, which flank the cDNA insert. cDNAs were amplified and subsequently purified using a PCR-spin column (QIAGEN). Approximately 100 ng of each amplified cDNA were denatured by mixing with 0.1N NaOH (final concentration) and incubating at 100° C. for 5 min. The solution was neutralized following the addition of 3×SSC (final concentration) and then the volume adjusted to 700 μl with dH2O. 200-μl of each sample was applied to one of three Nytran membranes in a Bio-Dot microfiltration apparatus (BioRad). Membranes were then baked for 30 min at 80° C. under vacuum. As positive and loading controls 100 ng of mtl-1 cDNA and myosin light chain DNA were also applied to each membrane, respectively.
Three pools of single-stranded ^32P-labeled cDNA probes were prepared from poly(A^+) RNA isolated from control, 8 h and 24 h cadmium-treated nematodes. cDNAs were generated from a mixture of mRNAs in a 25 μl reverse transcriptase reactions which contained 2 μg poly(A^+) RNA, 1 μg oligo (dT)18 primer, reverse transcriptase buffer, 800 μM DATP, dGTP and dTTP, 4.5 μM dCTP, 100 μCi [α-^32P]dCTP (3000 Ci/mmol), 20 units RNase inhibitor and 200 units Moloney murine leukemia virus reverse transcriptase. The reaction mixture was incubated at 37° C. for 1 h, then at 95° C. for 5 min to terminate the reaction. Unincorporated nucleotides were separated from the labeled cDNAs by using a G-25 spin column (Boehringer Mannheim). Equal amounts (5×10^6 cpm/ml) of each radioactive cDNA mixture were heat-denatured and then hybridized separately to one of the three membranes at 42° C. for 16 h in hybridization buffer. […]

[1] = cadmium exposure, time not stated
[2] = 8 hours, 100 μM CdCl2, relative to non-exposed, normalized to myosin light chain mRNA
[3] = 24 hours, 100 μM CdCl2, relative to non-exposed, normalized to myosin light chain mRNA

[Cl][Cd][Cl] [cadmium, CdCl2]
increase in level of expression, forty-six of the clones (24-h exposure): up to 6 fold
level of expression of myosin light-chain mRNA (after cadmium treatment, loading control on dot blot): remained constant
induction of mtl-1 mRNA (after cadmium treatment, positive control on dot blot, time not stated): ~5 fold
increase in the level of mRNA DDRT30 (collagen col-36) [1]: 3 fold
increase in the level of mRNA DDRT33D (predicted cuticle collagen) [1]: 3 fold
Fold-change in mRNA levels following cadmium exposure, DDRT1 [2]: 2.2 fold
Fold-change in mRNA levels following cadmium exposure, DDRT1 [3]: 3.2 fold
Fold-change in mRNA levels following cadmium exposure, DDRT2 [2]: 3.1 fold
Fold-change in mRNA levels following cadmium exposure, DDRT2 [3]: 3.9 fold
Fold-change in mRNA levels following cadmium exposure, DDRT3 [2]: 2.0 fold
Fold-change in mRNA levels following cadmium exposure, DDRT3 [3]: 2.4 fold
Fold-change in mRNA levels following cadmium exposure, DDRT4 [2]: 2.5 fold
Fold-change in mRNA levels following cadmium exposure, DDRT4 [3]: 2.8 fold
Fold-change in mRNA levels following cadmium exposure, DDRT5 [2]: 3.2 fold
Fold-change in mRNA levels following cadmium exposure, DDRT5 [3]: 3.9 fold
Fold-change in mRNA levels following cadmium exposure, DDRT6 [2]: 4.7 fold
Fold-change in mRNA levels following cadmium exposure, DDRT6 [3]: 5.0 fold
Fold-change in mRNA levels following cadmium exposure, DDRT7 [2]: 3.6 fold
Fold-change in mRNA levels following cadmium exposure, DDRT7 [3]: 4.0 fold
Fold-change in mRNA levels following cadmium exposure, DDRT9 [2]: 3.5 fold
Fold-change in mRNA levels following cadmium exposure, DDRT9 [3]: 2.8 fold
Fold-change in mRNA levels following cadmium exposure, DDRT10 [2]: 2.7 fold
Fold-change in mRNA levels following cadmium exposure, DDRT10 [3]: 2.5 fold
Fold-change in mRNA levels following cadmium exposure, DDRT12 [2]: 3.0 fold
Fold-change in mRNA levels following cadmium exposure, DDRT12 [3]: 3.2 fold
Fold-change in mRNA levels following cadmium exposure, DDRT15 [2]: 2.8 fold
Fold-change in mRNA levels following cadmium exposure, DDRT15 [3]: 3.1 fold
Fold-change in mRNA levels following cadmium exposure, DDRT16 [2]: 4.3 fold
Fold-change in mRNA levels following cadmium exposure, DDRT16 [3]: 4.9 fold
Fold-change in mRNA levels following cadmium exposure, DDRT17 [2]: 3.7 fold
Fold-change in mRNA levels following cadmium exposure, DDRT17 [3]: 5.7 fold
Fold-change in mRNA levels following cadmium exposure, DDRT18 [2]: 2.2 fold
Fold-change in mRNA levels following cadmium exposure, DDRT18 [3]: 2.9 fold
Fold-change in mRNA levels following cadmium exposure, DDRT19 [2]: 2.7 fold
Fold-change in mRNA levels following cadmium exposure, DDRT19 [3]: 3.9 fold
Fold-change in mRNA levels following cadmium exposure, DDRT20 [2]: 2.6 fold
Fold-change in mRNA levels following cadmium exposure, DDRT20 [3]: 2.8 fold
Fold-change in mRNA levels following cadmium exposure, DDRT21D [2]: 2.2 fold
Fold-change in mRNA levels following cadmium exposure, DDRT21D [3]: 4.2 fold
Fold-change in mRNA levels following cadmium exposure, DDRT21U [2]: 2.2 fold
Fold-change in mRNA levels following cadmium exposure, DDRT21U [3]: 2.6 fold
Fold-change in mRNA levels following cadmium exposure, DDRT22 [2]: 2.5 fold
Fold-change in mRNA levels following cadmium exposure, DDRT22 [3]: 3.3 fold
Fold-change in mRNA levels following cadmium exposure, DDRT23 [2]: 3.3 fold
Fold-change in mRNA levels following cadmium exposure, DDRT23 [3]: 3.0 fold
Fold-change in mRNA levels following cadmium exposure, DDRT25 [2]: 3.9 fold
Fold-change in mRNA levels following cadmium exposure, DDRT25 [3]: 4.4 fold
Fold-change in mRNA levels following cadmium exposure, DDRT26 [2]: 4.4 fold
Fold-change in mRNA levels following cadmium exposure, DDRT26 [3]: 4.7 fold
Fold-change in mRNA levels following cadmium exposure, DDRT28 [2]: 1.7 fold
Fold-change in mRNA levels following cadmium exposure, DDRT28 [3]: 1.8 fold
Fold-change in mRNA levels following cadmium exposure, DDRT29 [2]: 3.9 fold
Fold-change in mRNA levels following cadmium exposure, DDRT29 [3]: 4.4 fold
Fold-change in mRNA levels following cadmium exposure, DDRT30 [2]: 2.7 fold
Fold-change in mRNA levels following cadmium exposure, DDRT30 [3]: 3.1 fold
Fold-change in mRNA levels following cadmium exposure, DDRT32 [2]: 2.6 fold
Fold-change in mRNA levels following cadmium exposure, DDRT32 [3]: 2.4 fold
Fold-change in mRNA levels following cadmium exposure, DDRT33D [2]: 3.1 fold
Fold-change in mRNA levels following cadmium exposure, DDRT33D [3]: 3.5 fold
Fold-change in mRNA levels following cadmium exposure, DDRT33U [2]: 3.0 fold
Fold-change in mRNA levels following cadmium exposure, DDRT33U [3]: 3.5 fold
Fold-change in mRNA levels following cadmium exposure, DDRT34 [2]: 2.4 fold
Fold-change in mRNA levels following cadmium exposure, DDRT34 [3]: 3.0 fold
Fold-change in mRNA levels following cadmium exposure, DDRT35 [2]: 1.6 fold
Fold-change in mRNA levels following cadmium exposure, DDRT35 [3]: 1.9 fold
Fold-change in mRNA levels following cadmium exposure, DDRT38 (clone DDRT38, 24 hours, 100 μM CdCl2, relative to non-exposed, normalized to myosin light chain mRNA): 1.8 fold
Fold-change in mRNA levels following cadmium exposure, DDRT40 [2]: 1.9 fold
Fold-change in mRNA levels following cadmium exposure, DDRT40 [3]: 2.3 fold
Fold-change in mRNA levels following cadmium exposure, DDRT41 [2]: 2.2 fold
Fold-change in mRNA levels following cadmium exposure, DDRT41 [3]: 2.1 fold
Fold-change in mRNA levels following cadmium exposure, DDRT48 [2]: 2.1 fold
Fold-change in mRNA levels following cadmium exposure, DDRT48 [3]: 2.6 fold
Fold-change in mRNA levels following cadmium exposure, DDRT50 [2]: 2.2 fold
Fold-change in mRNA levels following cadmium exposure, DDRT50 [3]: 2.2 fold
Fold-change in mRNA levels following cadmium exposure, VL3 (clone VL3, 24 hours, 100 μM CdCl2, relative to non-exposed, normalized to myosin light chain mRNA): 2.4 fold
Fold-change in mRNA levels following cadmium exposure, VL9 [2]: −1.7 fold
Fold-change in mRNA levels following cadmium exposure, VL9 [3]: −2.3 fold
Fold-change in mRNA levels following cadmium exposure, VL11 [2]: 3.2 fold
Fold-change in mRNA levels following cadmium exposure, VL11 [3]: 6.1 fold
Fold-change in mRNA levels following cadmium exposure, VL12 (clone VL12 (mtl-1), 24 hours, 100 μM CdCl2, relative to non-exposed, normalized to myosin light chain mRNA): 5.2 fold
Fold-change in mRNA levels following cadmium exposure, VL19 [2]: 3.6 fold
Fold-change in mRNA levels following cadmium exposure, VL19 [3]: 5.0 fold
Fold-change in mRNA levels following cadmium exposure, VL20 [2]: 2.8 fold
Fold-change in mRNA levels following cadmium exposure, VL20 [3]: 5.0 fold
Fold-change in mRNA levels following cadmium exposure, VL21 [2]: 2.2 fold
Fold-change in mRNA levels following cadmium exposure, VL21 [3]: 2.5 fold
decrease in level of expression, a single clone (following cadmium exposure): ~2 fold
increase in steady-state level of expression, forty-eight of the clones (following cadmium exposure): 2-6 fold
decrease in level of expression for VL9 (in response to cadmium, time not stated): ~2 fold
